Patent publication US9624278B2, “Protein complex comprising MCM8 and MCM9 proteins and their use” (CENTRE NATIONAL DE LA RECHERCHE SCIENTIFIQUE, priority 2011, dated 2017)

Key:
Assay type in all cases: cell-based, mouse
WT MEF cells = assay: BrdU incorporation and growth of WT MEF cells treated 24 h with aphidicolin and released
Procedure: (§1) In Xenopus egg extracts, MCM8 and 9 were found essential for efficient DNA replication^4 5. However, in in-vitro systems derived from Xenopus eggs, DNA replication efficiency is at its maximum, as all potential DNA replication origins are activated, leading to an unusual short inter-origin space and an accelerated S phase (less than 20 min). A deficiency in DNA replication could be therefore rapidly detected. In somatic cells, S phase stands for 6-10 hrs, including during mouse early development (Wowlett and Bolton, 1985), J. Embryol. Exp. Morph, 87, 175; Ferreira and Carmon Forseca, 1997, J. Cell Sci, 11, 889). Therefore, defects in DNA replication can be compensated by induction of the store of dormant origins and/or a higher rate of replication. To investigate this possibility, and reveal possible DNA replication weaknesses in KO MEFs the Inventors first performed DNA fiber stretching^24, using a double pulse-labeling method, applying first a CldU pulse (“red” pulse), followed a second IdU pulse (“green” pulse), as in FIG. 29. Replication fork arrests can be detected by measuring the length of the second pulse, which becomes shorter if the fork is blocked or slowing down. […] To reveal whether MCM9 KO cells were more sensitive to replication stress, the Inventors treated MEF cells for 24 hrs with low concentration (1 μM) of aphidicolin (APH), an inhibitor of DNA polymerases that slows down or blocks replication forks. First, the Inventors quantified the global efficiency of DNA replication by measuring the proportion of cells incorporating BrdU. […] The Inventors concluded that KO cells were highly sensitive to replication fork inhibition. When cells were further released from APH treatment, control cells re-establish the original BrdU-intensity within the first 3 hours (FIG. 30, FIGS. 31A-T). […] The Inventors conclude that MCM9 KO cells are highly sensitive to replication stress, and unable to rescue arrested forks, resulting in growth arrest. […]

MCM9-deficient MEF cells = assay: BrdU incorporation and growth of MCM9-deficient MEF cells treated 24 h with aphidicolin and released
Procedure: as §1

MCM9 and MCM8 = assay: Western blot of WT MEF cells exposed for 24 h to APH; conditions: WT MEFs treated by APH
Procedure: FIG. 34B represents a western blot analysis of WT-(lanes A and C) and MCM9-deficient-(lanes B and D) MEF cells exposed (lanes C and D) or not (lanes A and B) for 24 h to APH for MCM9 (panel 1), MCM8 (panel 2), Chk1-P (panel 3), Chk2 (panel 4) and GAPDH (panel 5) as loading control. […] Rad51 is an essential protein of the homologous recombination pathway that is the main repair mechanisms of DSBs caused by replication fork arrest^25,12. […] For chromatin isolation, MEF cells were harvested, washed with PBS, frozen at −80° C. or directly lysed in CSK buffer (150 mM NaCl, 10 mM HEPES pH 7.5, 300 mM Sucrose, 1 mM MgCl2, 1 mM EDTA, 1 mM ATP.MgCl2, 1 mM DTT, 0.2% Triton X-100, Phosphatase-inhibitors (Calbiochem), protease-inhibitors Leupeptin, Aprotinin and Pepstatin at a concentration of 10 μg/ml) for 10 min on ice in a volume of 1 μl buffer for 2000 cells. For whole cell extract (“WCE”), a sample of the lysate was mixed with two times Laemli SDS buffer and boiled. The lysate was centrifuged at 3′800 g for 5 min at 4° C., the pellet homogenized again in CSK buffer, extracted again for 5 min on ice and centrifuged again and finally solubilized in two times Laemli SDS buffer (1 μl buffer for 5000 cells).

## C[C@@]1(CO)[C@H](O)CC[C@@]2(C)[C@H]1CC[C@H]1C[C@@H]3C[C@@]12CC[C@]3(O)CO [APH, aphidicolin]
WT MEF cells; WT MEF cells, 1 μM aphidicolin, 24 hrs
  BrdU signal in nuclei after the APH treatment: strongly reduced
WT MEF cells; WT MEF cells, 24 h APH then released without drug
  cell growth after the release from APH: resumed growth soon
WT MEF cells; control (WT) MEF cells, released from 24 h APH treatment
  time to re-establish the original BrdU-intensity after release from APH: ≤ 3 h
MCM9-deficient MEF cells; MCM9- (as well as MCM8-) KO MEF cells, 24 h APH then released without drug
  cell growth after the release from APH: died or stopped dividing
MCM9-deficient MEF cells; MCM9-deficient MEF cells, 1 μM aphidicolin, 24 hrs
  BrdU-labeled nuclei after the APH treatment: nearly no BrdU-labeled nuclei
MCM9-deficient MEF cells; surviving MCM9-deficient KO MEF cells, released from 24 h APH treatment
  time until percentage of BrdU-positive cells comparable to before the APH treatment: 48 h
MCM9 and MCM8
  expression of MCM9 and MCM8 at the protein level: stronger expression
